According to patent publication US20040204463A1, “N-aryl-2-oxazolidinone-5-carboxamides and their derivatives” (priority 2003, published 2004):
Converted amounts (≈) assume the structure as drawn. Where a name gives a salt, the structure may show the parent alone. Read-outs that look alike come from different tables or passages of the source.

How the values were obtained:
[1] = tested on: SAUR 9213; assay: In vitro MIC by standard agar dilution method, SAUR 9213; type: cell-based, S. aureus; details: Staphylococcus aureus, read-out: SAUR 9213 MIC (Minimum Inhibitory Concentration)
Source text: (§1) The oxazolidinone antibacterial agents of this invention have useful activity against a variety of organisms. The in vitro activity of compounds of this invention can be assessed by standard testing procedures such as the determination of minimum inhibitory concentration (MIC) by agar dilution as described in “Approved Standard. Methods for Dilution Antimicrobial Susceptibility Tests for Bacteria That Grow Aerobically”, 3rd. ed., published 1993 by the National Committee for Clinical Laboratory Standards, Villanova, Pa., USA.
(§2) The in vitro MICs of test compounds were determined by a standard agar dilution method. A stock drug solution of each analog was prepared in the preferred solvent, usually DMSO: H2O (1:3). Serial 2-fold dilutions of each sample are made using 1.0 ml aliquots of sterile distilled water. To each 1.0 ml aliquot of drug was added 9 ml of molten Mueller Hinton agar medium. The drug-supplemented agar was mixed, poured into 15×100 mm petri dishes, and allowed to solidify and dry prior to inoculation.
(§3) Vials of each of the test organisms are maintained frozen in the vapor phase of a liquid nitrogen freezer. Test cultures are grown overnight at 35° C. on the medium appropriate for the organism. Colonies are harvested with a sterile swab, and cell suspensions are prepared in Trypticase Soy broth (TSB) to equal the turbidity of a 0.5 McFarland standard. A 1:20 dilution of each suspension was made in TSB. The plates containing the drug supplemented agar are inoculated with a 0.001 ml drop of the cell suspension using a Steers replicator, yielding approximately 10^4 to 10^5 cells per spot. The plates are incubated overnight at 35° C.
(§4) Following incubation the Minimum Inhibitory Concentration (MIC μg/ml), the lowest concentration of drug that inhibits visible growth of the organism, was read and recorded.

[2] = tested on: HINF 30063; assay: In vitro MIC by standard agar dilution method, HINF 30063; type: cell-based, H. influenzae; details: Haemophilus influenzae, read-out: HINF 30063 MIC (Minimum Inhibitory Concentration)
Source text: as §1, §2, §3, §4

[3] = tested on: SPNE 9912; assay: In vitro MIC by standard agar dilution method, SPNE 9912; type: cell-based; details: read-out: SPNE 9912 MIC (Minimum Inhibitory Concentration)
Source text: as §1, §2, §3, §4

[4] = agar dilution, Mueller Hinton agar, incubated overnight at 35° C., lowest concentration that inhibits visible growth

Row | Structure (SMILES) | MIC [1, 4] [µg/mL] | MIC [2, 4] [µg/mL] | MIC [3, 4] [µg/mL] | MIC [1] [µg/mL] | MIC [2] [µg/mL] | MIC [3] [µg/mL]
1 | CCC(=O)NC[C@H]1CN(c2ccc(C3(C)CN(C(=O)CCCC#Cc4cccc(CN)c4)C3)cc2)C(=O)O1 [Compound 16, N-({(5S)-3-[4-(1-{6-[3-(aminomethyl)phenyl]hex-5-ynoyl}-3-methylazetidin-3-yl)phenyl]-2-oxo-1,3-oxazolidin-5-yl}methyl)propan-amide] | 16 (≈ 31 µM) | 16 (≈ 31 µM) | 2 (≈ 3.87 µM) | – | – | –
2 | CC(=O)NC[C@H]1CN(c2ccc(N3CCN(C(=O)CCC#Cc4cccc(CN)c4)CC3)c(F)c2)C(=O)O1 [Compound 33, N-({(5S)-3-[4-(4-{5-[3-(aminomethyl)phenyl]pent-4-ynoyl}piperazin-1-yl)-3-fluorophenyl]-2-oxo-1,3-oxazolidin-5-yl}-methyl)acetamide] | 4 (≈ 7.67 µM) | 16 (≈ 30.7 µM) | 1 (≈ 1.92 µM) | – | – | –
3 | C#CCCC(=O)N1CCN(c2ccc(N3C[C@H](CNC(C)=O)OC3=O)cc2F)CC1 [Compound 8, N-[((5S)-3-{3-fluoro-4-[4-(4-pentynoyl)-1-piperazinyl]phenyl}-2-oxo-1,3-oxazolidin-5-yl)methyl]acetamide] | 4 (≈ 9.6 µM) | > 32 | < 0.5 | – | – | –
4 | COC(=O)[C@@H](N)Cc1ccc(C#CCCC(=O)N2CCN(c3ccc(N4C[C@H](CNC(C)=O)OC4=O)cc3F)CC2)cc1 [Compound 21, methyl 4-{5-[4-(4-{(5S)-5-[(acetylamino)methyl]-2-oxo-1,3-oxazolidin-3-yl}-2-fluorophenyl)piperazin-1-yl]-5-oxopent-1-ynyl}-L-phenylalaninate] | 32 (≈ 53.9 µM) | > 64 | 4 (≈ 6.74 µM) | – | – | –
5 | CC(=O)NC[C@H]1CN(c2ccc(N3CCN(C(=O)CCCC#Cc4ccc(O)cc4)CC3)c(F)c2)C(=O)O1 [Compound 7, N-{[(5S)-3-(3-Fluoro-4-{4-[6-(4-hydroxyphenyl)hex-5-ynoyl]piperazin-1-yl}phenyl)-2-oxo-1,3-oxazolidin-5-yl]methyl}acetamide] | 4 (≈ 7.65 µM) | > 64 | 1 (≈ 1.91 µM) | – | – | –
6 | CC(=O)NC[C@H]1CN(c2ccc(N3CCN(C(=O)CCCC#Cc4ccc(/C(N)=N/O)cc4)CC3)c(F)c2)C(=O)O1.Cl [Compound 12, N-[((5S)-3-{4-[4-(6-{4-[(Z)-amino(hydroxyimino)methyl]-phenyl}hex-5-ynoyl)piperazin-1-yl]-3-fluorophenyl}-2-oxo-1,3-oxazolidin-5-yl)methyl]-acetamide hydrochloride] | 16 | > 64 | 2 | – | – | –
7 | CC(=O)NC[C@H]1CN(c2ccc(N3CCN(C(=O)CCCC#Cc4cccc(CN)c4)CC3)c(F)c2)C(=O)O1 [Compound 6, N-({(5S)-3-[4-(4-{6-[3-(aminomethyl)phenyl]hex-5-ynoyl}piperazin-1-yl)-3-fluorophen-yl]-2-oxo-1,3-oxazolidin-5-yl}methyl)acetamide] | 2 (≈ 3.73 µM) | 16 (≈ 29.9 µM) | 1 (≈ 1.87 µM) | – | – | –
8 | CC(=O)NC[C@H]1CN(c2ccc(N3CCN(C(=O)CCC#Cc4ccc(C[C@H](N)C(=O)O)cc4)CC3)c(F)c2)C(=O)O1 [Compound 13, 4-{5-[4-(4-{(5S)-5-[(acetylamino)methyl]-2-oxo-1,3-oxazolidin-3-yl}-2-fluorophenyl)piperazin-1-yl]-5-oxopent-1-ynyl}-L-phenylalanine] | – | – | – | > 64 | > 64 | 64 (≈ 110 µM)
9 | CC(=O)NC[C@H]1CN(c2ccc(N3CCN(C(=O)CCCCC#Cc4ccc(O)cc4)CC3)c(F)c2)C(=O)O1 [Compound 24, N-{[(5S)-3-(3-fluoro-4-{4-[7-(4-hydroxyphenyl)hept-6-ynoyl]piperazin-1-yl}phenyl)-2-oxo-1,3-oxazolidin-5-yl]methyl}acetamide] | 8 (≈ 14.9 µM) | > 64 | 2 (≈ 3.73 µM) | – | – | –
10 | CC(=O)NC[C@H]1CN(c2ccc(N3CCN(C(=O)CCCC#Cc4ccc(Cn5ccnc5)cc4)CC3)c(F)c2)C(=O)O1 [Compound 18, N-({(5S)-3-[3-fluoro-4-(4-{6-[4-(1H-imidazol-1-ylmethyl)phenyl]hex-5-ynoyl}piperazin-1-yl)phenyl]-2-oxo-1,3-oxazolidin-5-yl}methyl)acetamide] | 16 (≈ 27.3 µM) | > 64 | 2 (≈ 3.41 µM) | – | – | –
11 | CC(=O)NC[C@H]1CN(c2cc(F)c(N3CCN(C(=O)CCCC#Cc4ccc(CN)cc4)CC3)c(F)c2F)C(=O)O1 [Compound 10, N-({(5S)-3-[4-(4-{6-[4-(aminomethyl)phenyl]hex-5-ynoyl}piperazin-1-yl)-2,3,5-trifluorophenyl]-2-oxo-1,3-oxazolidin-5-yl}methyl)acetamide] | 4 (≈ 7 µM) | 32 (≈ 56 µM) | 2 (≈ 3.5 µM) | – | – | –
12 | CC(=O)NC[C@H]1CN(c2ccc(N3CCN(C(=O)CCC#Cc4ccc(N)cc4)CC3)c(F)c2)C(=O)O1 [Compound 20, N-{[(5S)-3-(4-{4-[5-(4-aminophenyl)pent-4-ynoyl]piperazin-1-yl}-3-fluorophenyl)-2-oxo-1,3-oxazolidin-5-yl]methyl}acetamide] | 4 (≈ 7.88 µM) | 64 (≈ 126 µM) | 2 (≈ 3.94 µM) | – | – | –
13 | CC(=O)NC[C@H]1CN(c2ccc(N3CCN(C(=O)CCCC#Cc4ccc(/C(C)=N/O)cc4)CC3)c(F)c2)C(=O)O1 [Compound 15, N-[((5S)-3-{3-fluoro-4-[4-(6-{4-[(1E)-N-hydroxyethan-imidoyl]-phenyl}hex-5-ynoyl)piperazin-1-yl]phenyl}-2-oxo-1,3-oxazolidin-5-yl)methyl]-acetamide, HCl salt] | > 16 | > 16 | 2 | – | – | –
14 | CC(=O)NC[C@H]1CN(c2ccc(N3CCN(C(=O)CCCC#Cc4ccc(C(C)=O)cc4)CC3)c(F)c2)C(=O)O1 [Compound 17, N-{[(5S)-3-(4-{4-[6-(4-acetylphenyl)hex-5-ynoyl]piperazin-1-yl}-3-fluorophenyl)-2-oxo-1,3-oxazolidin-5-yl]methyl}acetamide] | > 64 | > 64 | 2 (≈ 3.65 µM) | – | – | –
15 | CC(=O)NC[C@H]1CN(c2ccc(N3CCN(C(=O)CCCC#Cc4cccc(O)c4)CC3)c(F)c2)C(=O)O1 [Compound 27, N-{[(5S)-3-(3-fluoro-4-{4-[6-(3-hydroxyphenyl)hex-5-ynoyl]piperazin-1-yl}phenyl)-2-oxo-1,3-oxazolidin-5-yl]methyl}acetamide] | 8 (≈ 15.3 µM) | > 64 | 1 (≈ 1.91 µM) | – | – | –
16 | C#CCCCCC(=O)N1CCN(c2ccc(N3C[C@H](CNC(C)=O)OC3=O)cc2F)CC1 [Compound 31, N-({(5S)-3-[3-fluoro-4-(4-hept-6-ynoylpiperazin-1-yl)phenyl]-2-oxo-1,3-oxazolidin-5-yl}methyl)acetamide] | 4 (≈ 9 µM) | 64 (≈ 144 µM) | 1 (≈ 2.25 µM) | – | – | –
17 | CC(=O)NC[C@H]1CN(c2ccc(N3CCN(C(=O)CCC#Cc4ccc(O)cc4)CC3)c(F)c2)C(=O)O1 [Compound 30, N-{[(5S)-3-(3-fluoro-4-{4-[5-(4-hydroxyphenyl)pent-4-ynoyl]piperazin-1-yl}phenyl)-2-oxo-1,3-oxazolidin-5-yl]methyl}acetamide] | 4 (≈ 7.87 µM) | 64 (≈ 126 µM) | 1 (≈ 1.97 µM) | – | – | –
18 | CC(=O)NC[C@H]1CN(c2ccc(N3CCN(C(=O)CCC#Cc4c[nH]c(=O)[nH]c4=O)CC3)c(F)c2)C(=O)O1 [Compound 22, N-{[(5S)-3-(4-{4-[5-(2,4-dioxo-1,2,3,4-tetrahydropyrimidin-5-yl)pent-4-ynoyl]piperazin-1-yl}-3-fluorophenyl)-2-oxo-1,3-oxazolidin-5-yl]methyl}acetamide] | 32 (≈ 60.8 µM) | 32 (≈ 60.8 µM) | 4 (≈ 7.6 µM) | – | – | –
19 | CC(=O)NC[C@H]1CN(c2ccc(N3CCN(C(=O)CCCC#Cc4ccc(CN)cc4)CC3)c(F)c2)C(=O)O1 [Compound 26, N-({(5S)-3-[4-(4-{6-[4-(aminomethyl)phenyl]hex-5-ynoyl}piperazin-1-yl)-3-fluorophenyl]-2-oxo-1,3-oxazolidin-5-yl}methyl)acetamide] | 4 (≈ 7.47 µM) | 16 (≈ 29.9 µM) | 0.25 (≈ 0.467 µM) | – | – | –
20 | CC(=O)NC[C@H]1CN(c2ccc(N3CCN(C(=O)CCCC#Cc4cccc(C#N)c4)CC3)c(F)c2)C(=O)O1 [Compound 14, N-{[(5S)-3-(4-{4-[6-(3-cyanophenyl)hex-5-ynoyl]piperazin-1-yl}-3-fluorophenyl)-2-oxo-1,3-oxazolidin-5-yl]methyl}acetamide] | 8 (≈ 15 µM) | > 64 | 2 (≈ 3.76 µM) | – | – | –
21 | CC(=O)NC[C@H]1CN(c2ccc(N3CCN(C(=O)CCC#Cc4cccc(O)c4)CC3)c(F)c2)C(=O)O1 [Compound 29, N-{[(5S)-3-(3-fluoro-4-{4-[5-(3-hydroxyphenyl)pent-4-ynoyl]piperazin-1-yl}phenyl)-2-oxo-1,3-oxazolidin-5-yl]methyl}acetamide] | 4 (≈ 7.87 µM) | > 64 | 1 (≈ 1.97 µM) | – | – | –
